Results on ten compounds are retold here after ChEMBL document CHEMBL1201862, “PubChem BioAssay data set” (2004).

Structures are written as SMILES.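 How tested: cells in 96-well plates exposed to compound for 48 hours at five concentrations. GI50: concentration for 50% inhibition of growth.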 Activity calls are given as the source filed them. No stated cut-off is given here; in the data, active = GI50 up to about 1.1 µM and inactive = higher.

What all share (assay): NCI anticancer screen, dose series, 48 h
Assay [1] concerns ACHN.
Assay [2] has as its system COLO 205.
Assay [3] has as its system EKVX.
In assay [4] the test system is HCC 2998.
For assay [5], the system named is HCT-116.
Assay [6] has as its system HL-60.
The subject of assay [7] is MDA-MB-231.
The test system of assay [8] is MDA-MB-435.
The test system of assay [9] is Malme-3M.
Assay [10] relates to NCI-H23.
Assay [11] deals with NCI-H522.
The test system of assay [12] is OVCAR-3.
Assay [13] has as its system OVCAR-4.
In assay [14] the test system is SF-268.
Assay [15] has as its system SF-295.
Assay [16] concerns SF-539.
The subject of assay [17] is SK-MEL-28.
The subject of assay [18] is SNB-19.
The subject of assay [19] is T47D.

Take `NCCNc1nc(N2CCCC2)c2nc(Cl)c(NCc3ccccc3)nc2n1`: the GI50 in [1] is 1.95 µM (inactive); in assay [2], 1.69 µM (inactive); in assay [3], 1.73 µM (inactive); in [4], 1.51 µM (inactive); in assay [5], 1.49 µM (inactive); in [6], 1.97 µM (inactive). Also, the GI50 in assay [7] was 1.33 µM (inactive); in [8], 1.69 µM (inactive); in [9] it was 2.07 µM (inactive); in [10], 2.14 µM (inactive); in [11] it was 1.67 µM (inactive); in assay [12] it was 1.68 µM (inactive). Also, the GI50 was 2.16 µM (inactive) in [13]; 1.96 µM (inactive) in [14]; 1.86 µM (inactive) in assay [15]; 1.96 µM (inactive) in [16]; 1.79 µM (inactive) in assay [17]; 1.83 µM (inactive) in [18]. Moreover, the GI50 in [19] was 1.66 µM (inactive).

For `CC1(C)CC(C)(C)C1=NNC(N)=O`, the GI50 in assay [1], in [2], in [3], in assay [4], in assay [5] and in assay [6] was > 100 µM (inactive) in each case. The GI50 in assay [7], in assay [8], in [9], in assay [10], in [11] and in assay [12] was > 100 µM (inactive) in each case. Also, the GI50 in assay [13], in [14], in assay [15], in assay [16], in assay [17] and in assay [18] was > 100 µM (inactive) throughout. In addition, the GI50 in assay [19] is > 100 µM (inactive).

On to `COC(=O)CN(CC(O)C(NC(C)=O)C(O)C=O)C(=O)OCc1ccccc1` (stereo not given), for which the GI50 in assay [1], in assay [2], in [3], in assay [4], in assay [5] and in assay [6] was > 100 µM (inactive) in each case. Further, the GI50 was > 100 µM (inactive) in assay [7]; > 100 µM (inactive) in [8]; > 50.5 µM (inactive) in [9]; > 100 µM (inactive) in assay [10]; > 100 µM (inactive) in [11]; > 100 µM (inactive) in assay [12]. Further, the GI50 in [13], in assay [14], in assay [15], in assay [16], in assay [17] and in assay [18] was > 100 µM (inactive) in each case. Further, the GI50 in assay [19] was > 100 µM (inactive).

On to `CC(=O)Oc1ccn2nc(C)c(Br)c2c1`, for which the GI50 in [1] is > 100 µM (inactive); in assay [2] it was 25.6 µM (inactive); in assay [3], > 83.2 µM (inactive); in assay [4], > 100 µM (inactive); in [5], > 100 µM (inactive); in assay [6], 25.9 µM (inactive). Moreover, the GI50 in [7] is > 81.3 µM (inactive); in [8] it was 31.8 µM (inactive); in assay [9], 64.1 µM (inactive); in [10] it was > 58.2 µM (inactive); in assay [11], 28.8 µM (inactive); in assay [12], 39.3 µM (inactive). Also, the GI50 in assay [13] is > 100 µM (inactive); in assay [14], > 53.8 µM (inactive); in [15], > 100 µM (inactive); in assay [16] it was > 100 µM (inactive); in assay [17], > 100 µM (inactive); in [18] it was > 100 µM (inactive). Also, the GI50 in [19] was 99.1 µM (inactive).

For `COc1cc(/C=C2/CCS(=O)(=O)c3ccc(C)cc3C2=O)cc(OC)c1OC`, the GI50 in assay [1] is 3.66 µM (inactive); in assay [2], 4.85 µM (inactive); in assay [3], 12.1 µM (inactive); in assay [4], 4.34 µM (inactive); in assay [5] it was 2.95 µM (inactive); in assay [6], 1.41 µM (inactive). Further, the GI50 in assay [7] is 3.58 µM (inactive); in assay [8] it was 3.79 µM (inactive); in [9], 3.63 µM (inactive); in assay [10] it was 3.64 µM (inactive); in [11] it was 3.39 µM (inactive); in assay [12] it was 5.5 µM (inactive). Besides, the GI50 in assay [13] is 9.38 µM (inactive); in assay [14] it was 4.49 µM (inactive); in assay [15], 14.1 µM (inactive); in [16], 2.59 µM (inactive); in assay [17], 3.59 µM (inactive); in [18], 4.1 µM (inactive). In assay [19], the GI50 is 3.6 µM (inactive).

For `CN1CCN(c2ccc3nc(C4=C(O)C(=O)c5c(nc(CCl)n5C)C4=O)[nH]c3n2)CC1`, the GI50 in [1] was 10.3 µM (inactive); in assay [2], 10.3 µM (inactive); in assay [3] it was 21.7 µM (inactive); in assay [4], 5.89 µM (inactive); in [5], 8.85 µM (inactive); in assay [6], > 50 µM (inactive). In addition, the GI50 in assay [7] is 10.9 µM (inactive); in [8] it was 9.86 µM (inactive); in [9], 3.66 µM (inactive); in [10] it was 11.5 µM (inactive); in [11], 1.56 µM (inactive); in assay [12] it was 10.4 µM (inactive). The GI50 was 15.7 µM (inactive) in assay [13]; 14.9 µM (inactive) in assay [14]; 16.7 µM (inactive) in assay [15]; > 50 µM (inactive) in assay [16]; 19.3 µM (inactive) in assay [17]; 8.95 µM (inactive) in assay [18]. In assay [19], the GI50 was 0.796 µM (active).

As to `COc1ccc(/N=N/c2c(-c3c(OC)cc4occc4c3OC)[nH]c(=O)c(C#N)c2C)cc1`, the GI50 in assay [1], in assay [2], in assay [3], in assay [4], in [5] and in assay [6] was > 100 µM (inactive) throughout. Besides, the GI50 was > 100 µM (inactive) in assay [7]; > 100 µM (inactive) in assay [8]; 55 µM (inactive) in assay [9]; > 100 µM (inactive) in assay [10]; > 100 µM (inactive) in assay [11]; > 100 µM (inactive) in [12]. Further, the GI50 in [13], in assay [14], in assay [15], in [16], in [17] and in assay [18] was > 100 µM (inactive) each time. For the same compound, the GI50 in assay [19] is > 100 µM (inactive).

On to `N#Cc1c(NC(=S)Nc2ccc(Cl)cc2)sc2c1CCN(N1CCc3c(sc(NC(=S)Nc4ccc(Cl)cc4)c3C#N)C1)C2`, for which the GI50 in assay [1] was 12.7 µM (inactive); in assay [2], 16 µM (inactive); in [3], 18.2 µM (inactive); in assay [4] it was 50.2 µM (inactive); in [5], 21.6 µM (inactive); in assay [6], 30.2 µM (inactive). Also, the GI50 in assay [7] is 12.7 µM (inactive); in assay [8], 27.1 µM (inactive); in assay [9], 55.2 µM (inactive); in [10] it was 33 µM (inactive); in assay [11] it was 18.2 µM (inactive); in assay [12], 74.5 µM (inactive). Besides, the GI50 in [13] was 59.3 µM (inactive); in assay [14], 38.9 µM (inactive); in assay [15], 16.1 µM (inactive); in assay [16] it was 16.8 µM (inactive); in assay [17], 24 µM (inactive); in assay [18] it was 64 µM (inactive). Further, in assay [19], the GI50 is 21.6 µM (inactive).

For the compound `Cc1ccc(N2C(=O)CC(=O)N(NC(=O)C(C)Oc3ccccc3C)C2=S)cc1` (stereo not given), the GI50 in assay [1], in assay [2], in assay [3], in assay [4], in assay [5] and in [6] was > 100 µM (inactive) in each case. Besides, the GI50 in assay [7], in assay [8], in [9], in assay [10], in assay [11] and in assay [12] was > 100 µM (inactive) throughout. In addition, the GI50 in [13], in assay [14], in [15], in [16], in [17] and in assay [18] was > 100 µM (inactive) each time. The GI50 in assay [19] was > 100 µM (inactive).

As to `CC(C)OC(=O)c1ccc(CCC2=CC(=O)C=CC2=O)cc1`, the GI50 in [1] was 7.89 µM (inactive); in assay [2], 8.85 µM (inactive); in assay [3] it was 11.5 µM (inactive); in assay [4], 16.8 µM (inactive); in [5], 11.8 µM (inactive); in [6], 0.773 µM (active). For the same compound, the GI50 in assay [7] is 8.93 µM (inactive); in [8] it was 17.4 µM (inactive); in assay [9], 6.92 µM (inactive); in [10], 13.2 µM (inactive); in assay [11] it was 1.9 µM (inactive); in [12], 5.18 µM (inactive). The GI50 in assay [13] was 14.8 µM (inactive); in assay [14], 13.7 µM (inactive); in assay [15] it was 29.4 µM (inactive); in assay [16] it was 5.45 µM (inactive); in assay [17] it was 13.5 µM (inactive); in assay [18], 21.6 µM (inactive). Also, the GI50 in assay [19] was 2.17 µM (inactive).
